From ChEMBL document CHEMBL4732263 (Bioorg Med Chem, 2021)
Values after ≈ are worked out from the molar mass of the structure shown.

Key:
[1] = in vitro; conditions: Balb/C, mouse, plasma; at 1 µg/mL
[2] = in vitro; conditions: human, liver microsomes
[3] = human, microsomes, 1 h, 1 µM
[4] = cells; conditions: Homo sapiens, HEK293, 10 min
[5] = Apparent half life in Balb/C mouse at 3.5 mg/kg, iv up to 24 hrs by LC-MS analysis; type: ADME, organism-based; conditions: in vivo, read-out: t1/2(app) (converted)
[6] = Drug excretion in Sprague-Dawley rat urine at 2.6 mg/kg, iv up to 24 hrs by LC-MS analysis; type: ADME, organism-based; conditions: read-out: Drug excretion
[7] = AUC(0 to infinity) in Balb/C mouse plasma at 3.5 mg/kg, iv up to 24 hrs by LC-MS analysis; type: ADME, organism-based; parameters: route intravenous, dose 3.5 mg/kg, time <=24
[8] = Volume of distribution at steady state in Sprague-Dawley rat plasma at 2.6 mg/kg, iv up to 24 hrs by LC-MS analysis; type: ADME, organism-based; conditions: read-out: Vdss
[9] = in vitro; conditions: mouse, liver microsomes
[10] = Volume of distribution at steady state in Sprague-Dawley rat blood at 2.6 mg/kg, iv up to 24 hrs by LC-MS analysis; type: ADME, organism-based; conditions: whole blood, read-out: Vdss
[11] = in vitro; conditions: Balb/C, mouse, plasma; at 1 µg/mL; remark: listed apart in the source
[12] = biological target: Sodium channel protein type 5 subunit alpha (Homo sapiens, UniProt Q14524)
Chain of Sodium channel protein type 5 subunit alpha (Q14524 whole entry): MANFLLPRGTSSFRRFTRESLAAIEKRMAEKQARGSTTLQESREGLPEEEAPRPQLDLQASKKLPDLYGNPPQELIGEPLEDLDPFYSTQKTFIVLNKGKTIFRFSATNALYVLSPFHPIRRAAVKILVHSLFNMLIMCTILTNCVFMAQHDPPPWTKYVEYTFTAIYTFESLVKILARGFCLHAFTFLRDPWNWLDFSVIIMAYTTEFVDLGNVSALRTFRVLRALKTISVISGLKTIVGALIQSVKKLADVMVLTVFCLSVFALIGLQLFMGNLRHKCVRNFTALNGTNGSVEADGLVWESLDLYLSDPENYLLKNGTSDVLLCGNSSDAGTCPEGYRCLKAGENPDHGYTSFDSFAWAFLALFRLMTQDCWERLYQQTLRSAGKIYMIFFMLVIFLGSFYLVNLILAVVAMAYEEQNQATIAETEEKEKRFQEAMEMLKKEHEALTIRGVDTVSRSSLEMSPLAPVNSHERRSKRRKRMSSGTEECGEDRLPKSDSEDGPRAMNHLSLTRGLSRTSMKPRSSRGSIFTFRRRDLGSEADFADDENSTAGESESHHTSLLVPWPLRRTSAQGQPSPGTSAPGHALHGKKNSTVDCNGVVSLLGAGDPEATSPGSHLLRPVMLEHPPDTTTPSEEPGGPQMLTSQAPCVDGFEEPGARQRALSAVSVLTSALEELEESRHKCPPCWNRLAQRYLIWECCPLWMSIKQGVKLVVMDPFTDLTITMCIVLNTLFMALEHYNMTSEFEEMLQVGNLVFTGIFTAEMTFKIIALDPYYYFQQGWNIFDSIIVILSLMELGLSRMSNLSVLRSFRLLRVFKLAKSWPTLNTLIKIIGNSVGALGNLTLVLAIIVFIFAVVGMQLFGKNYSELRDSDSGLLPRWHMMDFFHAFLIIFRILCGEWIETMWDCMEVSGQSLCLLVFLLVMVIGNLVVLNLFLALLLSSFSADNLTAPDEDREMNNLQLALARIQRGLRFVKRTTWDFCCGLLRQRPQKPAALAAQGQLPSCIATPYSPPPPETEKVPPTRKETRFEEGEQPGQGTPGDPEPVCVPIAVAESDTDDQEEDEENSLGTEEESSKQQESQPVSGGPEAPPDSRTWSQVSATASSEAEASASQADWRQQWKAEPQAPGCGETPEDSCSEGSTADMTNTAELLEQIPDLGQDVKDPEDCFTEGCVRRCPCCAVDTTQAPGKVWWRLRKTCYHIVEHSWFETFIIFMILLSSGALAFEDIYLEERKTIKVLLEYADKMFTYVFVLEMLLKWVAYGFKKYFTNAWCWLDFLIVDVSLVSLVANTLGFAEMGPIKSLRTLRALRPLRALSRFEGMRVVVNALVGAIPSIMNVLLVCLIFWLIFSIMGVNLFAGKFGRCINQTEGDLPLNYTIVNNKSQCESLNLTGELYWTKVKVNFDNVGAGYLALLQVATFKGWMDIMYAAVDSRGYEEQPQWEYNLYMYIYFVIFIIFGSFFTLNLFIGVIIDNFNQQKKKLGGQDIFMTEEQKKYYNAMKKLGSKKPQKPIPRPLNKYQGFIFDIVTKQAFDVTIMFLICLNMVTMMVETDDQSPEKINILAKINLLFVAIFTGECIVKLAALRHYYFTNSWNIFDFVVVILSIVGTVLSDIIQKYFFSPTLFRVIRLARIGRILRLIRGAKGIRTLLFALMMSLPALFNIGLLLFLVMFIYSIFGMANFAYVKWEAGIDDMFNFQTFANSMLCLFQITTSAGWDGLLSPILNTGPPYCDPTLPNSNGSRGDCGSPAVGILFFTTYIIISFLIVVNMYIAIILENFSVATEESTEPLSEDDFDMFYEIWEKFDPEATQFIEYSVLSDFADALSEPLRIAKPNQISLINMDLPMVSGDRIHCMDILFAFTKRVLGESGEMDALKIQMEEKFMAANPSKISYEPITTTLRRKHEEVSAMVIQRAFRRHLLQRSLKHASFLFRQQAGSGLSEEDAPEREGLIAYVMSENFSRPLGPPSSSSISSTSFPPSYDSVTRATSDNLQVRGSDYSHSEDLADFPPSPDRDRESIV

[13] = Plasma clearance in Balb/C mouse at 3.5 mg/kg, iv up to 24 hrs by LC-MS analysis; type: ADME, organism-based
[14] = in vitro; conditions: human, liver microsomes; remark: listed apart in the source
[15] = Volume of distribution at steady state in Balb/C mouse blood at 3.5 mg/kg, iv up to 24 hrs by LC-MS analysis; type: ADME, organism-based; conditions: whole blood, read-out: Vdss
[16] = Clearance in Sprague-Dawley rat renal blood at 2.6 mg/kg, iv up to 24 hrs by LC-MS analysis; type: ADME, organism-based; conditions: whole blood
[17] = in vitro; conditions: mouse, liver microsomes; remark: listed apart in the source
[18] = Half life in Sprague-Dawley rat at 2.6 mg/kg, iv up to 24 hrs by LC-MS analysis; type: ADME, organism-based; conditions: in vivo
[19] = Volume of distribution at steady state in Balb/C mouse plasma at 3.5 mg/kg, iv up to 24 hrs by LC-MS analysis; type: ADME, organism-based; conditions: read-out: Vdss
[20] = AUC(0 to infinity) in Sprague-Dawley rat plasma at 2.6 mg/kg, iv up to 24 hrs by LC-MS analysis; type: ADME, organism-based; parameters: route intravenous, dose 2.6 mg/kg, time <=24
[21] = Clearance in Sprague-Dawley rat blood at 2.6 mg/kg, iv up to 24 hrs by LC-MS analysis; type: ADME, organism-based; conditions: whole blood
[22] = mouse, microsomes, 1 h, 1 µM
[23] = Plasma clearance in Sprague-Dawley rat at 2.6 mg/kg, iv up to 24 hrs by LC-MS analysis; type: ADME, organism-based
[24] = Clearance in Balb/C mouse blood at 3.5 mg/kg, iv up to 24 hrs by LC-MS analysis; type: ADME, organism-based; conditions: whole blood
[25] = in vivo; conditions: Balb/C, mouse, po
[26] = mouse, blood, 2 h; at 1 µg/mL
[27] = physchem; conditions: HCl, pH 2, pH 2
[28] = physchem; conditions: octanol/water, pH 7.4
[29] = physchem; conditions: PBS, pH 6.5, pH 6.5
[30] = in vitro; conditions: human, Caco-2
[31] = in vitro; conditions: human, Caco-2; remark: listed apart in the source
[32] = in vitro; conditions: human, Caco-2; remark: listed apart in the source
[33] = octanol/water, pH 7.4

| SMILES | half-life at 1 h, 1 µM [2] [min] | CL free [3] [µL/min/mg] | half-life at 1 h, 1 µM [9] [min] | microsomal CLint at 1 h, 1 µM [14] [µL/min/mg] | microsomal CLint at 1 h, 1 µM [17] [µL/min/mg] | CL free [22] [µL/min/mg] | solubility kinetic [27] [µg/mL] | logD [28] | solubility kinetic [29] [µg/mL] | other results |
| --- | --- | --- | --- | --- | --- | --- | --- | --- | --- | --- |
| N=C(N)NC(=O)c1nc(-c2ccc(C(F)(F)F)cc2)c(N)nc1N | > 255 | 11 | 153 | < 7 | 11 | 17 | > 100 | 2.8 | 50 (≈ 147 µM) |  |
| N=C(N)NC(=O)c1nc(-c2cc3ccccc3s2)c(N)nc1N | 68 | 41 | 7 | 25 | 252 | 417 | 50 (≈ 153 µM) | 2.9 | 12.5 (≈ 38.2 µM) |  |
| CC(C)NCC(O)COc1cccc2ccccc12 (stereo not given) [PROPRANOLOL] |  |  |  |  |  |  |  |  |  | efflux ratio at 2 h, 20 µM [30]: 1.1; Papp B→A at 2 h, 20 µM [31]: 51 ×10⁻⁶ cm/s; Papp A→B at 2 h, 20 µM [32]: 49 ×10⁻⁶ cm/s |
| N=C(N)NC(=O)c1nc(-c2cncnc2)c(N2CCCCCC2)nc1N | 86 | 32 | 100 | 20 | 17 | 27 | > 100 |  | 12.5 (≈ 35.2 µM) | logD [33]: 2.8 |

Further lines, with some results ahead:

| half-life at 1 h, 1 µM [2] [min] | CL free [3] [µL/min/mg] | half-life at 1 h, 1 µM [9] [min] | microsomal CLint at 1 h, 1 µM [14] [µL/min/mg] | microsomal CLint at 1 h, 1 µM [17] [µL/min/mg] | CL free [22] [µL/min/mg] | solubility kinetic [27] [µg/mL] | logD [28] | solubility kinetic [29] [µg/mL] | SMILES | other results |
| --- | --- | --- | --- | --- | --- | --- | --- | --- | --- | --- |
| 33 | 84 | 16 | 53 | 106 | 167 |  |  |  | N=C(N)NC(=O)c1nc(-c2cc3ccccc3o2)c(N)nc1N | metabolised at 4 h, 1 ug/ml [1]: < 6%; IC50 [4]: 22 µM; half-life [5]: 43.8 min; dose excreted at 24 h [6]: 12.5%; AUC(0-inf) [7]: 1.6 µM·h; Vd [8]: 17.5 L/kg; Vd [10]: 8.9 L/kg; fraction unbound at […], 1 ug/ml [11]: 0.06; IC50 [12]: 22 µM; clearance [13]: 114 mL/min/kg; Vd [15]: 2.2 L/kg; CL renal at 24 h [16]: 5.6 mL/min/kg; half-life [18]: 294 min; Vd [19]: 4.1 L/kg; AUC(0-inf) [20]: 1.6 µM·h; clearance [21]: 44.7 mL/min/kg; clearance [23]: 87.7 mL/min/kg; clearance [24]: 60 mL/min/kg; bioavailability at 24 h [25]: < 5%; Stabilty [26]: Unstable |
| 35 | 55 | 7.7 | 50 | 224 | 245 | > 100 | 1.4 | 25 (≈ 95.7 µM) | N=C(N)NC(=O)c1nc(-c2ccco2)c(N)nc1N |  |
